Consider 1 molecule from patent US20110178118A1, “PALONOSETRON FOR THE TREATMENT OF CHEMOTHERAPY INDUCED EMESES” (priority 2002, published 2011).

For the assay, the system named is cisplatin-induced emesis. Briefly: Duration of action in cisplatin-treated dogs. The assay is classed as in vivo. The note with it: 0.04 mg/kg IV. As to the method:
Mean numbers of episodes were computed and the statistical significance of differences between treatment groups were determined with Dunnett's t test. Solutions of palonosetron and comparator drugs (ondansetron and granisetron) were prepared in distilled water. Vehicle control groups received distilled water.

In the case of `CN1C2CCCC1CC(NC(=O)c1nn(C)c3ccccc13)C2` (centres unmarked) [Granisetron], the “antiemetic effect in duration of action experiments” value (1 to 12 hours before cisplatin) is “without antiemetic effect”. The “Emetic Episodes (mean ± SD)” value was found to be 12.33 ± 4.32 (1 hr pre-cisplatin 3.0 mg/kg IV); 9.67 ± 4.46 (2 hr pre-cisplatin 3.0 mg/kg IV); 13.83 ± 7.25 (4 hr pre-cisplatin 3.0 mg/kg IV); 21.33 ± 9.54 (6 hr pre-cisplatin 3.0 mg/kg IV); 14.67 ± 8.69 (8 hr pre-cisplatin 3.0 mg/kg IV); 23.00 ± 5.87 (10 hr pre-cisplatin 3.0 mg/kg IV). Further, the “Emetic Episodes (mean ± SD)” value (12 hr pre-cisplatin 3.0 mg/kg IV) is 15.67 ± 6.28.
